The source of these data is patent publication US11911375B2, “Solid oral nicotine formulation” (Fertin Pharma A/S, priority 2020, dated 2024).

A short description of data set [1]: Example 15: release of nicotine from NPR (16%) with 1 equivalent of AlCl3 or MgO in water, 28 mg/L nicotine, 25 degrees Celsius, 150 rpm, HPLC. The format is physicochemical. The conditions noted are these: 1 equivalent of MgO; release from NPR (16%). As to the method: The temperature of the water was 25 degrees Celsius throughout the experiment and stirring of 150 rpm was applied throughout the experiment. pH was measured at experiment start and end.
(§1) A relative low nicotine concentration is used in order to reduce the impact of equilibrium on both the release rate and effective release of nicotine from the ion-exchange resin.
Samples were taken out at varying timepoints and analyzed for nicotine content using standard HPLC. The result is presented as percentage of nicotine released.

The conditions of data set [2]: 25 degrees Celsius, atmospheric pressure and pH 7.0; cited from earlier work.
The conditions of data set [3]: compared with CaCl2; release from NPR (16%). The method, then:
The temperature of the water was 25 degrees Celsius throughout the experiment and stirring of 100 rpm was applied throughout the experiment. pH was measured at experiment start and end.
as §1
Samples were taken out at varying timepoints and analyzed for nicotine content using standard HPLC. The results are presented as percentage of nicotine released.

As for `[Mg+2].[O-2]` [MgO], in data set [1], the “Effect of the presence of MgO on release of nicotine” value is given as “does not increase the release of nicotine”. The water-solubility entry in data set [2] is recorded as “below 5 grams per 100 mL of water”.
For the compound `[Cl-].[Na+]` [NaCl], the “Effect of NaCl on the release of nicotine” value in data set [3] was “much lower effect on the release of nicotine”.
